Consider four molecules from patent US20070071773A1, “Compositions and methods for the treatment and prophylaxis of infections caused by gram positive bacteria” (priority 2002, published 2007).

Assay [1] relates to trypsin-like GAS protease. As to the kind of experiment: Degradation of IL-8 by JS95 supernatant (Western blot, ELISA). The format is biochemical, Group A Streptococcus (GAS). The settings on record: for IL-8 degradation (ELISA): JS95 supernatant pretreated 30 min 37° C.: 0.3 μM aprotinin, 1 mM benzamidine, 100 μg/ml soybean trypsin inhibitor, FIG. 15A. How it is done:
[…] was grown in the absence and presence of SilCR (50 μg/ml). IL-8 was incubated with the indicated supernatant fractions and then subjected to 18% SDS-PAGE. The separated protein bands were electro-transferred to a nitrocellulose membrane. Anti-IL-8 antibody and a secondary antibody conjugated to horseradish peroxidase were used to detect IL-8. The number of the lane represents incubation of IL-8 with: 1, DMEM+FCS (control); 2, JS95 supernatant; 3, JS95 supernatant grown in the presence of SilCR; 4, JS95 supernatant, pretreated with pefabloc SC; 5, supernatant of JS95 grown in the absence of SilCR, then 50 μg/ml of SilCR was added to the degradation assay.
15A The column numbers represent the ELISA results after incubation of IL-8 with: 1, DMEM+FCS (control); and the supernatants of: 2, JS95; 3, JS95 grown in the presence of SilCR; 4, JS95 pretreated with aprotenin; 5, JS95 pretreated with soybean trypsin inhibitor; 6, JS95 pretreated with benzamidine. The background of the ELISA assay (0.08±0.004) was subtracted from the shown results. The data represent the mean ± SD, of three separate experiments.
(§1) A. Cell culture of JS95 strain was grown in THY to an OD600 of 0.2. To determine the effect of SilCR on chemokine proteolysis, the culture was split into two equal fractions, of which one received SilCR (25 μg/ml). Both fractions were further incubated until they reached an OD600 of 0.3. Bacteria were washed twice with sterile PBS and once with DMEM containing 10% FCS. The washed pellets were re-suspended in DMEM supplemented with FCS to their original volumes. SilCR (50 μg/ml) was added to the fraction that was grown in the presence of SilCR, and the two fractions were further incubated for 1 h at 37° C. Supernatants were collected after centrifugation. The proteolysis reaction contained: 0.08 ml of each supernatant, 100 ng of recombinant human IL-8/CXCL8 (R&D systems, Minneapolis, Minn.) or 30 ng of recombinant murine MIP-2 (R& D systems, Minneapolis, Minn.), 20 mM MOPS pH=7.2 in a final volume of 0.1 ml. The reaction was conducted for 1 h at 37° C., and stopped by boiling for 1 min.
(§2) B. For testing protease inhibitors, the supernatants were pre-incubated with the inhibitor for 30 min at 37° C., followed by the proteolysis reaction. The following concentrations of inhibitors were used: 4 mM pefabloc SC; 0.5 mM PMSF; 0.3 μM aprotinin; 1 mM benzamidine; 100 μg/ml soybean trypsin inhibitor (STI).
C. Proteolysis of chemokines was determined by ELISA and Dot-blot. IL-8 content was quantified by ELISA using the Quantikine kit for determination of human IL-8 (R&D Systems, Minneapolis, Minn.) according to the manufacturer's instructions.
In general terms: In western blotting, separated proteins are transferred to a membrane and probed.

Assay [2] deals with trypsin-like GAS protease. Description: Degradation of MIP-2 by JS95 supernatant (dot blot). The format is biochemical, Group A Streptococcus (GAS). The following applies: pretreatment of JS95 supernatant: 4 mM pefabloc SC; 0.3 μM aprotinin; 1 mM benzamidine; 100 μg/ml STI. As to the method: 15B. The dots in the control panel represent MIP-2 that was incubated in DMEM+FCS, in the absence of JS95 supernatant and spotted at the following doses: 30, 15, 7.5, 3.75 and 1.87 ng (from left to right). The dots in the lower panel were generated in the same way, except that MIP-2 was previously incubated with JS95 supernatant.
as §1, §2
Samples of 50 μl from the proteolysis reaction were diluted in PBS to a final volume of 0.5 ml and passed through a 96-wells dot-blotter onto a 0.2-μm-nitrocellulose membrane. Detection of MIP-2 was performed using anti-mouse MIP-2 polyclonal antibodies (R&D Systems Minneapolis, Minn.) followed by addition of anti-mouse IgG-HRP antibody. Dots were detected using the SuperSignal West Pico chemiluminescent detection kit (Pierce, Rockford, Ill.).

Consider `N=C(N)c1ccccc1` [benzamidine], for which the “IL-8 degradation (ELISA)” value in assay [1] is reported as “completely abrogated”. In addition, the MIP-2 degradation result in assay [2] is listed as “blocked”.

On to `Cl.NCCc1ccc(S(=O)(=O)F)cc1` [pefabloc SC], for which the “IL-8 degradation (Western blot)” value in assay [1] (JS95 supernatant pretreated 30 min 37° C. with 4 mM pefabloc SC, FIG. 14) is recorded as “almost completely abolished”. Further, in assay [2], the MIP-2 degradation result was “blocked”.

Turning to aprotinin, in assay [1], the “IL-8 degradation (ELISA)” value is recorded as “completely inhibited”. Further, the MIP-2 degradation entry in assay [2] was “blocked”.

soybean trypsin inhibitor: the “IL-8 degradation (ELISA)” value in assay [1] was “completely abrogated”. Also, in assay [2], the MIP-2 degradation entry is on record as “blocked”.
